Measured values from patent US12564193B2, “Isoxazoline-substituted benzamide derivative, and preparation method therefor and use thereof” (SHANDONG UNITED PESTICIDE INDUSTRY CO., LTD., priority 2020, dated 2026).

Key:
Type in all cases: in vivo
Tetranychus cinnabarinus = assay: Acaricidal activity, slide immersion of female adult mites: Tetranychus cinnabarinus; details: immersion 5 seconds, checked after 24 hours, read-out: fatality rate on Tetranychus cinnabarinus
In short: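 Female adult mites stuck dorsally on tape on slides (4 rows of 10), dipped 5 s in test solution, excess blotted, incubated 24 h. Mites with immobile feet on brush touch scored dead; fatality rate calculated.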

Plutella xylostella = assay: Insecticidal activity, spray on pre-infested radish plants: Plutella xylostella; details: for Fatality rate on Plutella xylostella (%): Table 3; for pest or weed control at 0.1 ppm / pest or weed control at 1 ppm / pest or weed control at 10 ppm: Plutella xylostella, 144 h, spray, 6 days, read-out: fatality rate on Plutella xylostella
In short: (§1)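 Mortality was assessed visually after 6 days at 25° C and 70% relative humidity, following spray application of the test compound to pre-infested 12-15 day old radish plants. Each test was run in triplicate.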

[1] = test system: Frankliniella occidentalis; assay: Insecticidal activity, spray on pre-infested radish plants: Frankliniella occidentalis; details: for Fatality rate on Frankliniella occidentalis (%): Table 3; for pest or weed control at 1 ppm / pest or weed control at 10 ppm / pest or weed control at 25 ppm: Frankliniella occidentalis, 144 h, spray, 6 days, read-out: fatality rate on Frankliniella occidentalis
In short: as §1

Mythimna separata = assay: Insecticidal activity, spray on pre-infested radish plants: Mythimna separata; details: for Fatality rate on Mythimna separata (%): Table 3; for pest or weed control at 0.1 ppm / pest or weed control at 1 ppm / pest or weed control at 10 ppm: Mythimna separata, 144 h, spray, 6 days, read-out: fatality rate on Mythimna separata
In short: as §1

Spodoptera litura = assay: Insecticidal activity, spray on pre-infested radish plants: Spodoptera litura; details: 144 h, spray, 6 days, read-out: fatality rate on Spodoptera litura
In short: as §1

Chilo suppressalis = assay: Insecticidal activity, spray on pre-infested radish plants: Chilo suppressalis; details: for Fatality rate on Chilo suppressalis (%): Table 3; for pest or weed control at 0.1 ppm / pest or weed control at 1 ppm / pest or weed control at 10 ppm: Chilo suppressalis, 144 h, spray, 6 days, read-out: fatality rate on Chilo suppressalis
In short: as §1

Cnaphalocrocis medinalis = assay: Insecticidal activity, spray on pre-infested radish plants: Cnaphalocrocis medinalis; details: 144 h, spray, 6 days, read-out: fatality rate on Cnaphalocrocis medinalis
In short: (§2)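 First, 30-40 pests are transferred onto 12-15 day old radish plants on a cut leaf, and the soil is covered with sand. The compound solution is then sprayed and left to dry for 1 hour before a mesh cover is fitted. Insect mortality is read visually after 6 days at 25° C and 70% relative humidity.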

Pieris rapae = assay: Insecticidal activity, spray on pre-infested radish plants: Pieris rapae; details: 144 h, spray, 6 days, read-out: fatality rate on Pieris rapae
In short: as §2

Cc1cc(C2=NOC(c3cc(F)c(F)c(F)c3)(C(F)(F)F)C2)ccc1C(=O)NCc1ncc(C(F)(F)F)cc1Cl (stereo not drawn) [Compound 10, N-((3-chloro-5-(trifluoromethyl)pyridin-2-yl)methyl)-2-methyl-4-(5-(trifluoromethyl)-5-(3,4,5-trifluorophenyl)-4,5-dihydroisoxazol-3-yl)benzamide]
pest or weed control at 1 ppm (Tetranychus cinnabarinus): > 80% | pest or weed control at 10 ppm (Tetranychus cinnabarinus): > 80% | pest or weed control at 25 ppm (Tetranychus cinnabarinus): > 80% | Fatality rate on Plutella xylostella (%) (Plutella xylostella; 0.1 ppm): 90% | Fatality rate on Plutella xylostella (%) (Plutella xylostella; 1 ppm): 100% | Fatality rate on Plutella xylostella (%) (Plutella xylostella; 10 ppm): 100% | pest or weed control at 0.1 ppm (Plutella xylostella): > 80% | pest or weed control at 1 ppm (Plutella xylostella): > 80% | pest or weed control at 10 ppm (Plutella xylostella): > 80% | Fatality rate on Frankliniella occidentalis (%) ([1]; 1 ppm): 85% | Fatality rate on Frankliniella occidentalis (%) ([1]; 10 ppm): 100% | Fatality rate on Frankliniella occidentalis (%) ([1]; 25 ppm): 100% | pest or weed control at 1 ppm [1]: > 80% | pest or weed control at 10 ppm [1]: > 80% | pest or weed control at 25 ppm [1]: > 80% | Fatality rate on Mythimna separata (%) (Mythimna separata; 0.1 ppm): 85% | Fatality rate on Mythimna separata (%) (Mythimna separata; 1 ppm): 100% | Fatality rate on Mythimna separata (%) (Mythimna separata; 10 ppm): 100% | pest or weed control at 0.1 ppm (Mythimna separata): > 80% | pest or weed control at 1 ppm (Mythimna separata): > 80% | pest or weed control at 10 ppm (Mythimna separata): > 80% | pest or weed control at 0.1 ppm (Spodoptera litura): > 80% | pest or weed control at 1 ppm (Spodoptera litura): > 80% | pest or weed control at 10 ppm (Spodoptera litura): > 80% | Fatality rate on Chilo suppressalis (%) (Chilo suppressalis; 0.1 ppm): 85% | Fatality rate on Chilo suppressalis (%) (Chilo suppressalis; 1 ppm): 100% | Fatality rate on Chilo suppressalis (%) (Chilo suppressalis; 10 ppm): 100% | pest or weed control at 0.1 ppm (Chilo suppressalis): > 80% | pest or weed control at 1 ppm (Chilo suppressalis): > 80% | pest or weed control at 10 ppm (Chilo suppressalis): > 80% | pest or weed control at 0.1 ppm (Cnaphalocrocis medinalis): > 80% | pest or weed control at 1 ppm (Cnaphalocrocis medinalis): > 80% | pest or weed control at 10 ppm (Cnaphalocrocis medinalis): > 80% | pest or weed control at 0.1 ppm (Pieris rapae): > 80% | pest or weed control at 1 ppm (Pieris rapae): > 80% | pest or weed control at 10 ppm (Pieris rapae): > 80%

Cc1cc(C2=NOC(c3cc(F)c(F)c(F)c3)(C(F)(F)F)C2)ccc1C(=O)NCCc1cnccc1C(F)(F)F (stereo not drawn) [Compound 18]
pest or weed control at 1 ppm (Tetranychus cinnabarinus): > 80% | pest or weed control at 10 ppm (Tetranychus cinnabarinus): > 80% | pest or weed control at 25 ppm (Tetranychus cinnabarinus): > 80% | pest or weed control at 0.1 ppm (Plutella xylostella): > 80% | pest or weed control at 1 ppm (Plutella xylostella): > 80% | pest or weed control at 10 ppm (Plutella xylostella): > 80% | pest or weed control at 1 ppm [1]: > 80% | pest or weed control at 10 ppm [1]: > 80% | pest or weed control at 25 ppm [1]: > 80% | pest or weed control at 0.1 ppm (Mythimna separata): > 80% | pest or weed control at 1 ppm (Mythimna separata): > 80% | pest or weed control at 10 ppm (Mythimna separata): > 80% | pest or weed control at 0.1 ppm (Spodoptera litura): > 80% | pest or weed control at 1 ppm (Spodoptera litura): > 80% | pest or weed control at 10 ppm (Spodoptera litura): > 80% | pest or weed control at 0.1 ppm (Chilo suppressalis): > 80% | pest or weed control at 1 ppm (Chilo suppressalis): > 80% | pest or weed control at 10 ppm (Chilo suppressalis): > 80% | pest or weed control at 0.1 ppm (Cnaphalocrocis medinalis): > 80% | pest or weed control at 1 ppm (Cnaphalocrocis medinalis): > 80% | pest or weed control at 10 ppm (Cnaphalocrocis medinalis): > 80% | pest or weed control at 0.1 ppm (Pieris rapae): > 80% | pest or weed control at 1 ppm (Pieris rapae): > 80% | pest or weed control at 10 ppm (Pieris rapae): > 80%
